Laboratory results taken from US20040038888A1 (priority 2002, published 2004).
Ends that are not written are not given here.

How the values were obtained:
[1] = system: mouse adult neural stem cells; experiment: Intracellular ATP assay, adult mouse NSC, non-adherent culture; format: cell-based; conditions: for effect of inhibitor on the PACAP increase of intracellular ATP: co-incubated with PACAP 100 nM, 4 days, 10 uM H89, 1 uM U73122, 1 uM Gö6976
Protocol: The anterior lateral wall of the lateral ventricle of 5-6 week old mice was enzymatically dissociated in 0.8 mg/ml hyaluronidase and 0.5 mg/ml trypsin in DMEM containing 4.5 mg/ml glucose and 80 units/ml DNase at 37° C. for 20 min. The cells were gently triturated and mixed with three volumes of Neurosphere medium (DMEM/F12, B27 supplement, 12.5 mM HEPES pH7.4) containing 20 ng/ml EGF (unless otherwise stated), 100 units/ml penicillin and 100μg/ml streptomycin. After passing through a 70 μm strainer, the cells were pelleted at 160×g for 5 min. The supernatant was subsequently removed and the cells resuspended in Neurosphere medium supplemented as above, plated out in culture dishes and incubated at 37° C. Neurospheres were ready to be split approximately 7 days after plating.
To split neurosphere cultures, neurospheres were collected by centrifugation at 160×g for 5 min. The neurospheres were resuspended in 0.5 ml Trypsin/EDTA in HBSS (1×), incubated at 37° C. for 2 min and triturated gently to aid dissociation. Following a further 3 min incubation at 37° C. and trituration, 3 volumes of ice cold NSPH-media-EGF were added to stop further trypsin activity. The cells were pelleted at 220×g for 4 min, resuspended in fresh Neurosphere medium supplemented with 20 ng/ml EGF and 1 nM bFGF plated out and incubated at 37° C.
Mouse neurospheres, cultured as described above, from passage 2, were seeded in DMEM/F12 supplemented with B27 into a 96-well plate as single cells (10000 cells/well) to the substances to be measured were added at the concentrations indicated. After 3 days incubation, intracellular ATP was measured using the ATP-SL kit from BioThema, Sweden, according to the manufacturer's instructions. PACAP and VIP were purchased from Bachem. Maxadilan was a kind gift from Richard G Titus, Dept Microbiology, Immunology and Pathology, College of Veterinary Medicine and Biological Sciences, Colorado State University.
In experiments where signalling pathways were examined, cells were seeded as single cells as mentioned above. PACAP, 100 nM, was co incubated with 10 uM PKA inhibitor H89 (Alexis-Biochemicals) or 1 uM PLC inhibitor U73122 (Alexis-Biochemicals) or 1 uM of the PKC inhibitor Gö6976 (Sigma-Aldrich). Cells were incubated for 4 days before measurements of ATP.
In the experiment analysing the combinatory effect of PACAP and EGF, PACAP at 100 nM was co-incubated with 3 nM EGF for 3 days.

[2] = system: AP-1; experiment: AP-1 transcription factor reporter assay; format: cell-based, mouse; conditions: PD89059 10 μM with PACAP 100 nM
Protocol: Vectors: Vector DNA containing reporter elements for AP-1 and empty cloning vector (pTAL), with a luciferace reporter were purchased from Promega. The vectors were propagated in E. coli strain JM-109 (Promega) and purified with Qiagens maxi-prep Kit (Qiagen). The concentration was diluted to approximately 1 mg/ml per vector.
Transfection: Transient transfection was performed by seeding cells as above in suspension neurosphere cell culture and adherent neurosphere cell culture (1 to 3 day incubation) using 30,000 single cells/well. Each well was transiently transfected with […] plasmid, 0.6 μg Nupherin-neuron (Biomol) and 0,6 μl of Fugene-6 (Roche). Plasmid and Nupherin was mixed and diluted in DMEM/F12 to a total volume of 50 μl/well, and were incubated for 15 minutes prior to mixing with Fugene-6 that were diluted in DMEM/F12 to a total volume of 50 μl/well. The mix of plasmid and Nupherin and Fugene-6 were incubated for 20 min. The volume was adjusted to 100 μl prior to addition of 100 μl/well of transfection reagent.
Assay: The following day the transiently transfected cells were applied with PACAP (Bachem) to final concentration of 100 nM/well, in the presence or absence of MEK inhibitor, […] (Sigma-Aldrich). Luciferace activity was analysed with steady glow (Promega) according to the instructions of the manufacturer. Cells were analysed 20 hours after induction with PACAP.

[3] = system: NSC from LVW; experiment: Culture of NSC for cell counting; format: cell-based, mouse; conditions: PACAP 100 nM, VEGF 1 nM, in place of EGF, 7 days; VEGF relative to PACAP treated NSC
Protocol: Anterior lateral ventricle wall was dissected and the cells treated as stated above, however, in place of EGF, the medium was supplemented either with PACAP (100 nM), VEGF (1 nM) or a combination of both at the stated concentrations. The cell suspension was plated into wells of a 24 well plate. The medium was further supplemented with PACAP and/or VEGF every 2 days. After 7 days in culture, the NSC washed in phosphate buffered saline and dissociated with trypsin/EDTA. Cells numbers per well were counted using a Bürker chamber. VEGF was purchased from R&D Systems.

Cn1c2ccccc2c2c3c(c4c5ccccc5n(CCC#N)c4c21)CNC3=O [Gö6976, reference compound]
effect of inhibitor on the PACAP increase of intracellular ATP [1]: entirely negate the effect of PACAP

O=S(=O)(NCCNC/C=C/c1ccc(Br)cc1)c1cccc2cnccc12 [H89, reference compound]
effect of inhibitor on the PACAP increase of intracellular ATP [1]: unaltered

COc1cccc(-c2cc(=O)c3ccccc3o2)c1N [PD89059, reference compound]
effect of MEK inhibitor on the PACAP induction of AP-1 [2]: inhibited

COc1ccc2c(c1)CC[C@@H]1[C@@H]2CC[C@]2(C)[C@@H](NCCCCCCN3C(=O)C=CC3=O)CC[C@@H]12 [U73122, reference compound]
effect of inhibitor on the PACAP increase of intracellular ATP [1]: entirely negate the effect of PACAP

EGF: mitogen, growth factor for cell cultures from BD Biosciences
intracellular ATP levels, and hence NSC number ([1]; PACAP 100 nM, EGF 3 nM, alone or combined, 3 days): increased intracellular ATP levels

Vasoactive intestinal peptide (HSDAVFTDNYTRLRKQMAVKKYLNSILN; ends and bridges not checked; UniProt P01282 125-152, looked up) [VIP, 28-amino acid peptide]
intracellular ATP, and hence cell number ([1]; VIP at 1 μM, non-adherent conditions, 3 days, relative to control): statistically significant increase in intracellular ATP

vascular endothelial growth factor [VEGF]
cell number [3]: significant increase in cell number
